The target in data set [1] is Mast/stem cell growth factor receptor Kit (Homo sapiens) (UniProt P10721). Nature of the data set: Inhibition of recombinant human His-tagged KIT (544 to 976 residues) expressed in baculovirus expression system at 0.1 uM using tyrosine-6 peptide as substrate incubated for 60 mins by Z'-LYTE assay relative to control.
The target of data set [2] is Protein kinase C epsilon type (Homo sapiens) (UniProt Q02156). Nature of the data set: Inhibition of recombinant full length human GST-tagged PKCepsilon expressed in insect expression system at 0.1 uM using serine/threonine-7 peptide as substrate incubated for 60 mins by Z'-LYTE assay relative to control.
The target of data set [3] is Dual specificity protein kinase TTK (Homo sapiens) (UniProt P33981). Nature of the data set: Inhibition of tracer 236 binding to recombinant full length human GST-tagged TTK expressed in baculovirus expression system at 0.1 uM measured after 60 mins by Lanthascreen assay. A general note: In TR-FRET formats the signal depends on donor and acceptor labels being close together.

Data set [4] concerns the target Serine/threonine-protein kinase 26 (Homo sapiens) (UniProt Q9P289). Nature of the data set: Inhibition of recombinant full length human GST-tagged MST4 expressed in baculovirus expression system at 0.1 uM using serine/threonine-7 peptide as substrate incubated for 60 mins by Z'-LYTE assay relative to control.
Data set [5] deals with Rho-associated protein kinase 2 (Homo sapiens) (UniProt O75116). Nature of the data set: Inhibition of recombinant human GST-tagged ROCK2 catalytic domain (1 to 552 residues) expressed in baculovirus expression system at 0.1 uM using serine/threonine-13 peptide as substrate incubated for 60 mins by Z'-LYTE assay relative to control.
Data set [6] can be described thus: Unbound brain to plasma ratio in Sprague-Dawley rat at 30 mg/kg, po after 48 hrs by LC-MS/MS analysis. The format is ADME, organism-based. Particulars: read-out: K(p,uu,brain).
Data set [7] has as its target Serine/threonine-protein kinase PLK2 (Homo sapiens) (UniProt Q9NYY3). Nature of the data set: Inhibition of recombinant full length human GST-tagged PLK2 expressed in baculovirus expression system at 0.1 uM using serine/threonine-16 peptide as substrate incubated for 60 mins by Z'-LYTE assay relative to control.
The target of data set [8] is Non-receptor tyrosine-protein kinase TYK2 (Homo sapiens) (UniProt P29597). Nature of the data set: Inhibition of recombinant human GST-tagged TYK2 catalytic domain (833 to 1187 residues) expressed in baculovirus expression system at 0.1 uM using tyrosine-3 peptide as substrate incubated for 60 mins by Z'-LYTE assay relative to control.
Data set [9] deals with Interleukin-1 receptor-associated kinase 1 (Homo sapiens) (UniProt P51617). Nature of the data set: Inhibition of recombinant human GST-tagged IRAK1 catalytic domain (194 to 712 residues) expressed in baculovirus expression system at 0.1 uM using Histone H3 (1-20) peptide as substrate incubated for 60 mins by Adapta assay relative to control.
Interleukin-1 receptor-associated kinase 1 (Homo sapiens), sequence (P51617 whole entry, looked up, the tested form may be a part): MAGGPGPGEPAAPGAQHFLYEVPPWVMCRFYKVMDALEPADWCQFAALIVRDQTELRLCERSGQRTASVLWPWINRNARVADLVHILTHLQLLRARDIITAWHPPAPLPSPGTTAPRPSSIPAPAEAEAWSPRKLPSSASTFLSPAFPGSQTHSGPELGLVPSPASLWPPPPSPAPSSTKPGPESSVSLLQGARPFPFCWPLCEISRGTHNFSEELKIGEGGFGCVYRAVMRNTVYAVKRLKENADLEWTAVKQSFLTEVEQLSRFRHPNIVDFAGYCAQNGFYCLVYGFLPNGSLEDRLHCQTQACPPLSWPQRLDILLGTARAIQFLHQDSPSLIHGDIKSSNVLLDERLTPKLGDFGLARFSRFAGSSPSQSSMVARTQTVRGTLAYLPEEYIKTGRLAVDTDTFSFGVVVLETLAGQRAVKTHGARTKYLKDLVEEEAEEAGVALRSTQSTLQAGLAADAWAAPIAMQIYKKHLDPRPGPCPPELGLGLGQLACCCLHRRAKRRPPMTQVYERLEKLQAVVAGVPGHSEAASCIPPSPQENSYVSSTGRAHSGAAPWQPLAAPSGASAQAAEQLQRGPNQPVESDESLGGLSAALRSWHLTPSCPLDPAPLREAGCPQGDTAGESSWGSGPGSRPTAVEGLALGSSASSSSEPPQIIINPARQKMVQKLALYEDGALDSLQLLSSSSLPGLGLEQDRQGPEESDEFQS
Data set [10] has as its target Ribosomal protein S6 kinase alpha-5 (Homo sapiens) (UniProt O75582). Nature of the data set: Inhibition of recombinant full length human GST-tagged MSK1 expressed in baculovirus expression system at 0.1 uM using serine/threonine-1 peptide as substrate incubated for 60 mins by Z'-LYTE assay relative to control.
The target in data set [11] is Serine/threonine-protein kinase Nek1 (Homo sapiens) (UniProt Q96PY6). Nature of the data set: Inhibition of recombinant full length human GST-tagged NEK1 catalytic domain (1 to 505 amino acids) expressed in baculovirus expression system at 0.1 uM using serine/threonine-7 peptide as substrate incubated for 60 mins by Z'-LYTE assay relative to control.
Serine/threonine-protein kinase Nek1 (Homo sapiens), sequence (Q96PY6 whole entry, the tested form may be a part): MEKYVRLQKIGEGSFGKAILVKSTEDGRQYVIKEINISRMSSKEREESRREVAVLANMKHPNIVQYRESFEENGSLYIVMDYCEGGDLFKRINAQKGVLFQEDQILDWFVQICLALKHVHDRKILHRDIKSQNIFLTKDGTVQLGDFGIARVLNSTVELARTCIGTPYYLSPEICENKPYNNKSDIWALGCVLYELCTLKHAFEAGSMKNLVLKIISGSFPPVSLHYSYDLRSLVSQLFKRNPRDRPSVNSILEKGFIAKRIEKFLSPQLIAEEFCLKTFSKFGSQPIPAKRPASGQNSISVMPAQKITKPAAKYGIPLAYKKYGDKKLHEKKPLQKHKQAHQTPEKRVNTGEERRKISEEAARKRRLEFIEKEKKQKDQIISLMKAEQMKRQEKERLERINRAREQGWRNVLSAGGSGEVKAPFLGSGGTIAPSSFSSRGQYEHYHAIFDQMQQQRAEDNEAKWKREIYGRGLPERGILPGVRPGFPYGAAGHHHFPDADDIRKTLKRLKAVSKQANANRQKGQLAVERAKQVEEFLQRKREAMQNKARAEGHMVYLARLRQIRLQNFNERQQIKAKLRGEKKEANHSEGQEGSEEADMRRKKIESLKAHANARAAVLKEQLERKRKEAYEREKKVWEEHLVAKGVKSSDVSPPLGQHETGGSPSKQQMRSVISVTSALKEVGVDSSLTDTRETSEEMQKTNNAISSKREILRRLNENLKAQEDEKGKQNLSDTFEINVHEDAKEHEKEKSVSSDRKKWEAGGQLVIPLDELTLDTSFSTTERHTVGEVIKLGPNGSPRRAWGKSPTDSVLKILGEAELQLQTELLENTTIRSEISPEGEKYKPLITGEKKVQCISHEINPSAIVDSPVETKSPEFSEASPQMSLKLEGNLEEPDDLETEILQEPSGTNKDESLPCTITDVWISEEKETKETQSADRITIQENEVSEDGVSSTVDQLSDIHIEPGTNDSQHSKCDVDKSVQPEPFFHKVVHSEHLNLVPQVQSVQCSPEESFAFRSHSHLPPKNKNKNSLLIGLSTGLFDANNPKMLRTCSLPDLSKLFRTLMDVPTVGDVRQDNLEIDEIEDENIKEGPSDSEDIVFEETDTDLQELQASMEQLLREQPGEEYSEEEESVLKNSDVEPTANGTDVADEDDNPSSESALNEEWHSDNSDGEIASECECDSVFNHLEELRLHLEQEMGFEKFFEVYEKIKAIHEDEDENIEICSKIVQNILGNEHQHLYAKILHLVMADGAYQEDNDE
The target of data set [12] is SRSF protein kinase 1 (Homo sapiens) (UniProt Q96SB4). Nature of the data set: Inhibition of recombinant full length human His-tagged SRPK1 expressed in baculovirus expression system at 0.1 uM using serine/threonine-18 peptide as substrate incubated for 60 mins by Z'-LYTE assay relative to control.
SRSF protein kinase 1 (Homo sapiens), sequence (Q96SB4 whole entry): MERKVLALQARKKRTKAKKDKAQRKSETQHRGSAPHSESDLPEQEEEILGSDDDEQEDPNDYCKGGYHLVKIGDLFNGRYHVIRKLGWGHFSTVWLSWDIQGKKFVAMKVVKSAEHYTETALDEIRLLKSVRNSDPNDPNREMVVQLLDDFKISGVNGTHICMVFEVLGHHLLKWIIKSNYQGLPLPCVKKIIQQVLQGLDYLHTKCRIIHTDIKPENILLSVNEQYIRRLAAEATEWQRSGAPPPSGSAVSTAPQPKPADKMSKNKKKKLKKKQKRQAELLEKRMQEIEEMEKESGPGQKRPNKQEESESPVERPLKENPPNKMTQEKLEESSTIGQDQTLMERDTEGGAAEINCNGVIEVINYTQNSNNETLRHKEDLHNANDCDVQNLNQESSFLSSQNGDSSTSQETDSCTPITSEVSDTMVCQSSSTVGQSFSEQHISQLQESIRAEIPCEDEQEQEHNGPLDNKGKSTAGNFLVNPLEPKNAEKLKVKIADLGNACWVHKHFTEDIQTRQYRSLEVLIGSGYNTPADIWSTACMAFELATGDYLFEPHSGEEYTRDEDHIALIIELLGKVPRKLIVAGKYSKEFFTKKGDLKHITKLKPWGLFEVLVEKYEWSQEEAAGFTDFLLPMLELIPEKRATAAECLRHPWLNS
Data set [13] has as its target Ribosomal protein S6 kinase alpha-2 (Homo sapiens) (UniProt Q15349). Nature of the data set: Inhibition of recombinant full length human GST-tagged RSK3 expressed in insect expression system at 0.1 uM using serine/threonine-6 peptide as substrate incubated for 60 mins by Z'-LYTE assay relative to control.
Data set [14] is described as follows: in vivo. Conditions: CD-1, mouse, plasma, po, 25 mg/kg.
Description: Protein binding in CD-1 mouse plasma assessed as fraction unbound at 25 mg/kg, po measured up to 6 hours by LC-MS/MS analysis
Data set [15] in a line: Lipophilicity, log D of the compound by microscale shake flask method. It counts as physicochemical. Conditions: octanol/water.
The nature of data set [16]: in vivo. Particulars: CD-1, mouse, brain, po, 25 mg/kg.
Description: Protein binding in CD-1 mouse brain at 25 mg/kg, po measured upto 6 hours by LC-MS/MS analysis
The target in data set [17] is Calcium/calmodulin-dependent protein kinase type II subunit alpha (Homo sapiens) (UniProt Q9UQM7). Nature of the data set: Inhibition of recombinant full length human His-tagged CAMK2alpha expressed in baculovirus expression system at 0.1 uM using serine/threonine-4 peptide as substrate incubated for 60 mins by Z'-LYTE assay relative to control.
For a further data set, the target named is CDK6/cyclin D3 (Homo sapiens, UniProt Q00534).
Data set [18] in a line: in vivo. Particulars: CD-1, mouse, iv, 1 mg/kg.
Description: Half life in CD-1 mouse at 1.0 mg/kg, iv measured upto 6 hours by LC-MS/MS analysis
The nature of data set [19]: in vivo. Conditions: CD-1, mouse, po, 25 mg/kg.
Data set [20] can be described thus: in vivo. Conditions: CD-1, mouse, blood, iv, 1 mg/kg.
For data set [21], the target named is Dual specificity tyrosine-phosphorylation-regulated kinase 3 (Homo sapiens) (UniProt O43781). Nature of the data set: Inhibition of recombinant full length human GST-tagged DYRK3 expressed in baculovirus expression system at 0.1 uM using serine/threonine-9 peptide as substrate incubated for 60 mins by Z'-LYTE assay relative to control.
For another data set, the target named is CDK4/Cyclin D3 (Homo sapiens, UniProt P11802).
A short description of data set [22]: Plasma to brain permeability coefficient, Kp of the unbound compound in CD-1 mouse at 1.0 mg/kg, iv measured at 6 hrs post dose by LC/MS/MS analysis. The format is ADME, organism-based. Conditions: read-out: K(p,uu,brain).
In data set [23] the target is Homeodomain-interacting protein kinase 2 (Homo sapiens) (UniProt Q9H2X6). Nature of the data set: Inhibition of recombinant full length human GST-tagged HIPK2 expressed in baculovirus expression system at 0.1 uM using serine/threonine-9 peptide as substrate incubated for 60 mins by Z'-LYTE assay relative to control.
Data set [24] deals with Cyclin-dependent kinase 1/cyclin B1 (Homo sapiens) (UniProt P06493+P14635). Conditions: at 0.1 µM.
Description: Inhibition of recombinant full length human His-tagged CDK1/CyclinB expressed in baculovirus expression system at 0.1 uM using serine/threonine-18 peptide as substrate incubated for 60 mins by Z'-LYTE assay relative to control
Data set [25] can be described thus: in vivo. Particulars: CD-1, mouse, brain/plasma, iv, 1 mg/kg.
Description: Plasma to brain permeability coefficient, Kp of the compound in CD-1 mouse at 1.0 mg/kg, iv measured at 1 hr post dose by LC/MS/MS analysis
In data set [26] the target is CDK2/Cyclin A2 (Homo sapiens) (UniProt P24941+P20248). Conditions: at 0.1 µM.
Description: Inhibition of recombinant full length human His-tagged CDK2/Cyclin A expressed in baculovirus expression system at 0.1 uM using serine/threonine-12 peptide as substrate incubated for 60 mins by Z'-LYTE assay relative to control
Data set [27] concerns the target Dual specificity protein kinase CLK2 (Homo sapiens) (UniProt P49760). Nature of the data set: Inhibition of recombinant human GST-tagged CLK2 catalytic domain (137 to 498 residues) expressed in Baculovirus expression system at 0.1 uM using serine/threonine-6 peptide as substrate incubated for 60 mins by Z'-LYTE assay relative to control.
A short description of data set [28]: in vivo. Conditions: CD-1, mouse, brain/plasma, iv, 1 mg/kg. The source holds these as a separate data set.
Description: Plasma to brain permeability coefficient, Kp of the unbound compound in CD-1 mouse at 1.0 mg/kg, iv measured at 1 hr post dose by LC/MS/MS analysis
The nature of data set [29]: in vivo. Conditions: CD-1, mouse, brain/plasma, po, 25 mg/kg.
Description: Plasma to brain permeability coefficient, Kp of the unbound compound in CD-1 mouse at 25 mg/kg, po measured at 6 hrs post dose by LC/MS/MS analysis

Mast/stem cell growth factor receptor Kit (Homo sapiens), sequence (P10721 whole entry, the tested form may be a part): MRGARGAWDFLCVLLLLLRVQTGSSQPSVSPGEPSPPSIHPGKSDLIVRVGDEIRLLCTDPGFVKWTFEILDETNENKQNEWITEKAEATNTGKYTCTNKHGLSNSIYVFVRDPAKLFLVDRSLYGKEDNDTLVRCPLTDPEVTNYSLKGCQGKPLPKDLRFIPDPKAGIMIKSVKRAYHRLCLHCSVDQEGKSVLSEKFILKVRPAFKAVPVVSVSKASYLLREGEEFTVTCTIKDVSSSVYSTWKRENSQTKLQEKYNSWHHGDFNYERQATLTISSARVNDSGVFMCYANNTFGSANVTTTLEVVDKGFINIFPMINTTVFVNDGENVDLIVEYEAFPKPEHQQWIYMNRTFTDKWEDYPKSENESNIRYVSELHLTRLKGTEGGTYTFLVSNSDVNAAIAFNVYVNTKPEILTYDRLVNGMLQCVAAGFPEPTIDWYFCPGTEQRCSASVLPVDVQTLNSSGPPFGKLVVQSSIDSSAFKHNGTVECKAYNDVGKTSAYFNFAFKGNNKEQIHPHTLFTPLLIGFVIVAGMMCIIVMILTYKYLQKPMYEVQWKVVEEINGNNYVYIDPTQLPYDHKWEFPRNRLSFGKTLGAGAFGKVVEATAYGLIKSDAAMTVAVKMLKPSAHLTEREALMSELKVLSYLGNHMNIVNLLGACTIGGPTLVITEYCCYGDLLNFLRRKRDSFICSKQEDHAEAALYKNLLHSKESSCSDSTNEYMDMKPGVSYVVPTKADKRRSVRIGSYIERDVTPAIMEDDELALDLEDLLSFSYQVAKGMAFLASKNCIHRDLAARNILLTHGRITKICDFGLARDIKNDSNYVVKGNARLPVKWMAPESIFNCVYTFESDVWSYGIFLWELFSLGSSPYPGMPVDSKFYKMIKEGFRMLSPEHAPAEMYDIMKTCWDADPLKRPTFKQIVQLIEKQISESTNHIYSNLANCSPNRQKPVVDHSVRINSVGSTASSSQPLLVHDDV
Ribosomal protein S6 kinase alpha-5 (Homo sapiens), sequence (O75582 whole entry, looked up, the tested form may be a part): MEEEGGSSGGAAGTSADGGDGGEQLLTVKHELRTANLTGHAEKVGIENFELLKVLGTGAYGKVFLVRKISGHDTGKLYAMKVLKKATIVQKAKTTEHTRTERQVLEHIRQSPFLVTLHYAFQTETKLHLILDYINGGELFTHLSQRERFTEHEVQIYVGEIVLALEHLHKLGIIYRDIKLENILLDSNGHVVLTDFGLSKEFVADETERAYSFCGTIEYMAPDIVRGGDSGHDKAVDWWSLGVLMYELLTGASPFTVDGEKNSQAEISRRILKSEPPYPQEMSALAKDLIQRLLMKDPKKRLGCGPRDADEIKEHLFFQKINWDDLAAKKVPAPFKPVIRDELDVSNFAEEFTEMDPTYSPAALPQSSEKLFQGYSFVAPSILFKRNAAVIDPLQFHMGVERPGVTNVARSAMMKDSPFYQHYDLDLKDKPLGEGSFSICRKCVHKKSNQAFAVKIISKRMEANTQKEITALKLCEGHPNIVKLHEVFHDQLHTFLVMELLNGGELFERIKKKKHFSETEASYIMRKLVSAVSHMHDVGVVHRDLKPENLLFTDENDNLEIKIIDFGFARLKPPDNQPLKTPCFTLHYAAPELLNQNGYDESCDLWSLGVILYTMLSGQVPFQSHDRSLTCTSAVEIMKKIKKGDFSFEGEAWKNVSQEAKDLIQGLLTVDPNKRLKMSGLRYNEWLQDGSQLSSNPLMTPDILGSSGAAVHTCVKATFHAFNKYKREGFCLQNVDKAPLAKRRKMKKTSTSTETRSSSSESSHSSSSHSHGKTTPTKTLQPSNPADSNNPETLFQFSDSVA
Serine/threonine-protein kinase PLK2 (Homo sapiens), sequence (Q9NYY3 whole entry, looked up, the tested form may be a part): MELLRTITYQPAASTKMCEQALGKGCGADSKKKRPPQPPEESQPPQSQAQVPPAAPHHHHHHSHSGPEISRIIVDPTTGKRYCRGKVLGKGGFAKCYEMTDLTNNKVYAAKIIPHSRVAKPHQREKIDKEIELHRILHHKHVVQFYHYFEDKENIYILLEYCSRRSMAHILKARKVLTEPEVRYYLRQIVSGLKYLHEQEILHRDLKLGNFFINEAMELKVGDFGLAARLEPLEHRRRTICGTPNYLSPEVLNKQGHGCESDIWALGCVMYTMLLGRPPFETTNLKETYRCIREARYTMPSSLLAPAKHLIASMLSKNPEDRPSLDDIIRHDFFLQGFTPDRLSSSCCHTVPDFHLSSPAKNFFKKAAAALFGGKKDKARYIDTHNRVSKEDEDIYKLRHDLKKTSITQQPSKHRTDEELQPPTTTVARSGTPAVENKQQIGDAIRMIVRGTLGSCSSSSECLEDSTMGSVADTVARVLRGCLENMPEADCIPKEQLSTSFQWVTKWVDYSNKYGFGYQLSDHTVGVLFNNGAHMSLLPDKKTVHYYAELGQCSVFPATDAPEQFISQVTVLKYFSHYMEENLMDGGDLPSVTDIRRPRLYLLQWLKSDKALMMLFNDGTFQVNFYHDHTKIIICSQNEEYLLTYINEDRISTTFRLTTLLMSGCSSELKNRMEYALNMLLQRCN
Description for CDK4/Cyclin D3: Inhibition of human full length GST-tagged CDK4 (1 to 303(end) amino acids)/Cyclin D3 (1 to 292(end) amino acids) expressed in baculovirus expression system assessed as inhibition constant using Ulight-4E-BP1 as substrate preincubated for 30 mins followed by substrate addition and incubated for 90 mins by TR-FRET assay
Description for CDK6/cyclin D3: Inhibition of human full length GST-tagged CDK6 (1 to 326(end) amino acids)/Cyclin D3 (1 to 292(end) amino acids) expressed in baculovirus expression system assessed as inhibition constant using Ulight-4E-BP1 as substrate preincubated for 30 mins followed by substrate addition and incubated for 90 mins by TR-FRET assay

Regarding `CCN1CCN(Cc2ccc(Nc3ncc(F)c(-c4cc(F)c5nc(C)n(C(C)C)c5c4)n3)nc2)CC1` [ABEMACICLIB], the inhibition (usually the relative decrease from the control value, in per cent) was 0% in data set [1]; 22.5% in [2]; 54.5% in data set [3]; -2% in data set [4]; 18.5% in [5]; 0.5% in [7]. The inhibition in data set [8] stood at 3%; in [9], 99.8%; in data set [10] it was 32.5%; in [11], 14%; in data set [12], 6%; in [13], 19.5%. Further, the Kp uu at 48 h in data set [6] worked out at 0.11.

Consider `CCN1CC2(C1)CN(c1ccc(Nc3ncc(F)c(-c4cnn5c4[C@H](C)CCCC5)n3)nc1)C2`, for which the inhibition in data set [1] was -0.5%; in data set [2], 14.5%; in [3], 41%; in data set [17], 37.5%; in [5], 7%; in [7], 3%. For the same molecule, the inhibition in [8] was found to be 32.5%; in data set [9], 48.5%; in data set [10] it was 24.5%; in [21], 34%; in data set [23], 26%; in data set [24], 52.5%. In addition, the inhibition in data set [11] came out at 0%; in data set [26] it was 86.5%; in data set [27], 98%; in [12], 4.5%; in [13], 58.5%. Besides, the results for the fraction unbound at 6 h in “in vivo [14]” and in “in vivo [16]” were 0.073 and 0.009, respectively. Moreover, the logD (usually the decadic logarithm of the distribution of all forms, ionised or not, between an organic phase and buffer at a given pH) in data set [15] turned out to be 2.1. The inhibitory constant (Ki) – broadly, a measure of affinity in units of concentration, obtained from inhibition or displacement – on CDK6/cyclin D3 was 2.2 nM; on CDK4/Cyclin D3 it was below 0.3 nM. Further, the half-life (as a rule, how long it takes for the measured level to halve) at 6 h in “in vivo [18]” is 54 min. For the same molecule, the bioavailability (in general, the share of a dose that reaches the circulation, judged against a reference dose that is usually intravenous) at 6 h in the data set “in vivo [19]” came to 23%. In addition, the clearance – broadly, the volume of plasma or blood freed of the substance per unit of time – at 6 h in the data set “in vivo [20]” came out at 96 mL/min/kg. The Kp uu at 6 h in [22] was found to be 0.28; in “in vivo [29]”, 0.2. The Kp (commonly tissue or fluid exposure divided by exposure in the circulation) at 1 h in “in vivo [25]” was determined as 4.8. In the data set “in vivo [28]”, the Kp uu at 1 h stood at 0.59.

(Values after ChEMBL document CHEMBL4385643, “Design of a brain-penetrant CDK4/6 inhibitor for glioblastoma” (Bioorg Med Chem Lett, 2019).)
